Reference: patent US12110507B2, “Method for preparing functional hepatic progenitor cells or hepatic cells, or functional small intestinal epithelial progenitor cells or small intestinal epithelial cells” (priority 2017, dated 2024)
Like-named read-outs stand apart in the source and are kept apart here.

Tests used:
[1] = test system: functional hepatic progenitor cells prepared from SEES5 cells; details: 5 mg/ml or 8 mg/ml ammonia, 2 days, after puromycin selection
[2] = test system: functional hepatic progenitor cells prepared from iPSC-O cells; experiment: selective culture with ammonia of functional hepatic progenitor cells prepared from iPSC-O cells; qRT-PCR after differentiation
[3] = test system: hepatic progenitor cells differentiated from iPSC-K cells; experiment: culture of hepatic progenitor cells differentiated from iPSC-K cells in the presence of an antibiotic (selection); type: cell-based, human; details: for colony of cells after culture with antibiotic: concentration and culture period of each antibiotic as in Table 5
Procedure: The iPSC-K cells were cultured until becoming approximately 80% confluent. […] The colony was dissociated by gentle tapping of the dish and then suspended by the addition of hiPSC medium. The obtained cell suspension was transferred to a dish coated with gelatin, and incubated under conditions of 15 minutes, 37° C., and 5% CO2 to remove the feeder cells. The supernatant was centrifuged, and the recovered iPSC-K cells were suspended in EB medium (having the composition described below).
The EBs were recovered and suspended in XF32 medium (Uchida, H. et al., JCI Insight, 2017; 2 (1): e86492, doi:10.1172/jci.insight.86492). The EBs were placed at a concentration of 20 EBs/well in a 24-well plate coated with collagen, and differentiated into hepatic progenitor cells by adhesion culture at 37° C. for 35 days in 5% CO2. Then, the cells were further cultured for 2 days using modified SCM-6F8 medium (Wang, X. et al., Nature, 2015; 522 (7555): 173-8, doi:10.1038/nature14484, Epub 2015 Jun. 3) supplemented with 3 μg/ml puromycin (Wako Pure Chemical Industries, Ltd., #160-23151).
Functional hepatic progenitor cells were prepared from iPSC-K cells by the same procedures as in the sections (2-1) and (2-2) except that various antibiotics were used instead of puromycin. The antibiotics used and their concentrations, and the number of culture days will be shown below.

[4] = test system: hepatic progenitor cells differentiated from SEES5 cells; experiment: culture of hepatic progenitor cells differentiated from SEES5 cells in the presence of an antibiotic (selection); type: cell-based, human; details: for colony of cells after culture with antibiotic: concentration and culture period of each antibiotic as in Table 6 (3 days)
[5] = test system: gut organoid differentiated from Edom-iPS cells; experiment: culture of gut organoid in the presence of puromycin; type: cell-based; details: 2 days
Procedure: Gut organoid was prepared from Edom-iPS cells (PLoS Genet., 2011; 7 (5):e1002085, doi.org/10.1371/journal.pgen.1002085), menstrual blood-derived iPS cells, according to the procedures described in Uchida, H. et al., JCI Insight, 2017; 2 (1): e86492. After a lapse of 3 months, the gut organoid was cultured for 2 days in the presence of […] puromycin.

[6] = hepatic cells differentiated from cells selected with ammonia, qRT-PCR, vs no ammonia selection
[7] = conditions of Table 6, data not shown

N [ammonia]
colony formation after selective culture with ammonia [1]: A colony was formed | colony formation after selective culture with ammonia ([2]; 5 mg/ml or 8 mg/ml ammonia, 2 days, after puromycin selection): A colony was formed | expression level of CPS1 [2, 6]: Elevation | expression level of CYP3A4 [2, 6]: further elevate | expression level of OTC [2, 6]: Elevation

CN(CC[C@H](N)CC(=O)N[C@H]1C=C[C@H](n2ccc(N)nc2=O)O[C@@H]1C(=O)O)C(=N)N [blasticidin S]
colony of cells after culture with antibiotic [3]: A colony of the cells was obtained | colony of cells after culture with antibiotic [4]: A colony of the cells was obtained | CYP3A4 expression of the cells selected with antibiotic [4, 7]: markedly high level

COc1ccc(C[C@H](N)C(=O)N[C@H]2[C@@H](O)[C@H](n3cnc4c(N(C)C)ncnc43)O[C@@H]2CO)cc1 [puromycin]
cells obtained after puromycin culture of gut organoid ([5]; 2 mg/ml puromycin): Functional small intestinal epithelial progenitor cells having the ability to metabolize drugs were obtained | cells obtained after puromycin culture of gut organoid ([5]; 400 mg/ml puromycin): Functional small intestinal epithelial progenitor cells having the ability to metabolize drugs were obtained | colony of cells after culture in the presence of puromycin ([3]; 3 μg/ml puromycin, 2 days, modified SCM-6F8 medium): colony of the cells | colony of cells after culture with antibiotic [4]: A colony of the cells was obtained | CYP3A4 expression of the cells selected with antibiotic [4, 7]: markedly high level

CN[C@@H]1[C@@H](O)[C@@H](O[C@@H]2[C@@H](O)[C@H](O[C@H]3O[C@H]([C@@H](C)O)[C@@H](O)[C@H](O)[C@H]3N)[C@@H](N)C[C@H]2N)OC[C@]1(C)O [G418]
colony of cells after culture with antibiotic [3]: A colony of the cells was obtained | colony of cells after culture with antibiotic [4]: A colony of the cells was obtained | CYP3A4 expression of the cells selected with antibiotic [4, 7]: markedly high level

phleomycin
colony of cells after culture with antibiotic [3]: A colony of the cells was obtained | colony of cells after culture with antibiotic [4]: A colony of the cells was obtained

Cc1c(N)nc([C@H](CC(N)=O)NC[C@H](N)C(N)=O)nc1C(=O)N[C@H](C(=O)N[C@H](C)[C@@H](O)[C@H](C)C(=O)N[C@H](C(=O)NCCC1=N[C@@H](c2nc(C(=O)NCCCCN=C(N)N)cs2)CS1)[C@@H](C)O)[C@@H](O[C@@H]1O[C@@H](CO)[C@@H](O)[C@H](O)[C@@H]1O[C@H]1O[C@H](CO)[C@@H](O)[C@H](OC(N)=O)[C@@H]1O)c1cnc[nH]1 [Zeocin™, phleomycin D1]
colony of cells after culture with antibiotic [3]: A colony of the cells was obtained | CYP3A4 expression of the cells selected with antibiotic [4]: markedly high level | colony of cells after culture with antibiotic [4]: A colony of the cells was obtained
